# Source: patent publication US10160753B2, “Indazole compounds as IRAK4 inhibitors” (Aurigene Discovery Technologies Limited, priority 2014, dated 2018)
# Structures can show the parent of a compound that is named as a salt.
# Target: T1, recombinant IRAK-4 kinase (Homo sapiens, UniProt Q9NWZ3)
# T1 construct: purchased Millipore, USA
# T1 sequence (Q9NWZ3 1-460): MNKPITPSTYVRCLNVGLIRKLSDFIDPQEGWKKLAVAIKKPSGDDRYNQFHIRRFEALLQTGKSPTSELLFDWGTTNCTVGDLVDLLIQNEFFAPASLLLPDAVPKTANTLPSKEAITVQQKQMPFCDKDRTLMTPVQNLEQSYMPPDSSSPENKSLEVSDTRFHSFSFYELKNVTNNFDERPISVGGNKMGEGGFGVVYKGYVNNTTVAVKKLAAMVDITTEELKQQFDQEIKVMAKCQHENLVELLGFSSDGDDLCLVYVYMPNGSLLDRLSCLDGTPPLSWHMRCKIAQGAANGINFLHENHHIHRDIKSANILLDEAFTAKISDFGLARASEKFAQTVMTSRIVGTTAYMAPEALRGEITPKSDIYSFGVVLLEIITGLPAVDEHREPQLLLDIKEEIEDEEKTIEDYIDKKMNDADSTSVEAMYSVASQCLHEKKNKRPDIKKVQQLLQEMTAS
# Test: IRAK-4 Biochemical Assay (TR-FRET)
# Details: 30 min pre-incubation, 100 nM Biotin Histone H3, 20 μM ATP, read-out: IC50 values for IRAK4 activity
row,Structure (SMILES),IC50
1,"Cn1cc2cc(NC(=O)c3coc(N4CC[C@H](O)C4)n3)c(N3CCCCC3)cc2n1 [Example 52, (S)-2-(3-hydroxypyrrolidin-1-yl)-N-(2-methyl-6-(piperidin-1-yl)-2H-indazol-5-yl)oxazole-4-carboxamide]",< 50 nM
2,"Cc1cnccc1-c1nc(C(=O)Nc2cc3cn(C)nc3cc2N2CCCCC2)co1 [Example 22, N-(2-methyl-6-(piperidin-1-yl)-2H-indazol-5-yl)-2-(3-methylpyridin-4-yl)oxazole-4-carboxamide]",< 50 nM
3,"O=C(Nc1cc2cn(C3CCCC3)nc2cc1C1CC1)c1cccc(-c2cn[nH]c2)n1 [Example 7, N-(2-cyclopentyl-6-cyclopropyl-2H-indazol-5-yl)-6-(1H-pyrazol-4-yl) picolinamide]",< 50 nM
4,"Cc1ccc(C(=O)Nc2cc3cn(C)nc3cc2N2CCCCC2)nc1-c1cnn(C)c1 [Example 30, 5-methyl-6-(1-methyl-1H-pyrazol-4-yl)-N-(2-methyl-6-(piperidin-1-yl)-2H-indazol-5-yl)picolinamide]",< 50 nM
5,"Cc1cnccc1-c1nc(C(=O)Nc2cc3cn(C4CCCC4)nc3cc2C2CC2)co1 [Example 27, N-(2-cyclopentyl-6-cyclopropyl-2H-indazol-5-yl)-2-(3-methylpyridin-4-yl)oxazole-4-carboxamide]",< 50 nM
6,"Cc1nn(C)c2cc(N3CCC(CO)CC3)c(NC(=O)c3coc(-c4ccnc(N)c4)n3)cc12 [Example 112, 2-(2-aminopyridin-4-yl)-N-(6-(4-(hydroxymethyl)piperidin-1-yl)-1,3-dimethyl-1H-indazol-5-yl)oxazole-4-carboxamide]",< 50 nM
7,"COc1cc(-c2nc(C(=O)Nc3cc4cn(C)nc4cc3N3CCCCC3)co2)ccn1 [Example 103, 2-(2-methoxypyridin-4-yl)-N-(2-methyl-6-(piperidin-1-yl)-2H-indazol-5-yl)oxazole-4-carboxamide]",< 50 nM
8,"Cc1cc(-c2nc(C(=O)Nc3cc4cnn(C)c4cc3N3CCC(O)CC3)co2)cc(C)n1 [Example 114, 2-(2,6-dimethylpyridin-4-yl)-N-(6-(4-hydroxypiperidin-1-yl)-1-methyl-1H-indazol-5-yl)oxazole-4-carboxamide]",< 50 nM
9,"Cn1cc(-c2cccc(C(=O)Nc3cc4cn(C)nc4cc3N3CCCCC3)n2)cn1 [Example 19, 6-(1-methyl-1H-pyrazol-4-yl)-N-(2-methyl-6-(piperidin-1-yl)-2H-indazol-5-yl)picolinamide]",< 50 nM
10,"Cn1ncc2cc(NC(=O)c3coc(N4CC[C@H](N)C4)n3)c(C3CC3)cc21 [Example 51, (S)-2-(3-aminopyrrolidin-1-yl)-N-(6-cyclopropyl-1-methyl-1H-indazol-5-yl)oxazole-4-carboxamide]",> 100 nM
11,"Cn1cc2cc(NC(=O)c3coc(N4CC[C@H](N)C4)n3)c(N3CCCCC3)cc2n1 [Example 44, (S)-2-(3-aminopyrrolidin-1-yl)-N-(2-methyl-6-(piperidin-1-yl)-2H-indazol-5-yl)oxazole-4-carboxamide]",< 50 nM
12,"COc1cc(-c2nc(C(=O)Nc3cc4cnn(C)c4cc3N3CCC(O)CC3)co2)ccn1 [Example 101, N-(6-(4-hydroxypiperidin-1-yl)-1-methyl-1H-indazol-5-yl)-2-(2-methoxypyridin-4-yl)oxazole-4-carboxamide]",< 50 nM
13,"Cc1cc(-c2nc(C(=O)Nc3cc4cn(C)nc4cc3N3CCCCC3)co2)ccn1 [Example 2, N-(2-methyl-6-(piperidin-1-yl)-2H-indazol-5-yl)-2-(2-methylpyridin-4-yl) oxazole-4-carboxamide]",< 50 nM
14,"Cc1cc(-c2nc(C(=O)Nc3cc4cnn(CCO)c4cc3N3CCC(O)CC3)co2)ccn1 [Example 117, N-(1-(2-hydroxyethyl)-6-(4-hydroxypiperidin-1-yl)-1H-indazol-5-yl)-2-(2-methylpyridin-4-yl)oxazole-4-carboxamide]",< 50 nM
15,"Cc1cc(-c2nc(C(=O)Nc3cc4cnn(C)c4cc3N3CCC3)co2)ccn1 [Example 59, N-(6-(azetidin-1-yl)-1-methyl-1H-indazol-5-yl)-2-(2-methylpyridin-4-yl)oxazole-4-carboxamide]",> 100 nM
16,"Cn1cc2cc(NC(=O)c3cccc(N4CCC(O)C4)n3)c(N3CCCCC3)cc2n1 (stereo not drawn) [Example 40, 6-(3-hydroxypyrrolidin-1-yl)-N-(2-methyl-6-(piperidin-1-yl)-2H-indazol-5-yl)picolinamide]",< 50 nM
17,"Cn1cc2cc(NC(=O)c3cccc(-c4cccnc4F)n3)c(N3CCCCC3)cc2n1 [Example 14, 2′-fluoro-N-(2-methyl-6-(piperidin-1-yl)-2H-indazol-5-yl)-[2,3′-bipyridine]-6-carboxamide]",< 50 nM

row,Structure (SMILES),IC50
1,"C[C@H](O)Cn1cc(-c2nc(C(=O)Nc3cc4cnn(C)c4cc3C3CC3)co2)cn1 [Example 53, (S)—N-(6-cyclopropyl-1-methyl-1H-indazol-5-yl)-2-(1-(2-hydroxypropyl)-1H-pyrazol-4-yl)oxazole-4-carboxamide]",> 100 nM
2,"CCOP(=O)(OCC)OCC1CCN(c2cc3nn(C)cc3cc2NC(=O)c2coc(-c3ccnc(C)c3)n2)CC1 [Example 129, Diethyl ((1-(2-methyl-5-(2-(2-methylpyridin-4-yl)oxazole-4-carboxamido)-2H-indazol-6-yl)piperidin-4-yl)methyl) phosphate]",< 50 nM
3,"Cc1cc(-c2nc(C(=O)Nc3cc4cn(C)nc4cc3N3CCCCC3)co2)cc(C)n1 [Example 119, 2-(2,6-dimethylpyridin-4-yl)-N-(2-methyl-6-(piperidin-1-yl)-2H-indazol-5-yl)oxazole-4-carboxamide hydrochloride]",< 50 nM
4,"Cn1cc2cc(NC(=O)c3coc(-c4ccnc(N)c4)n3)c(N3CCCCC3)cc2n1 [Example 86, 2-(2-aminopyridin-4-yl)-N-(2-methyl-6-(piperidin-1-yl)-2H-indazol-5-yl)oxazole-4-carboxamide hydrochloride]",< 50 nM
5,"Cn1ncc2cc(NC(=O)c3coc(N4CC[C@H](O)C4)n3)c(C3CC3)cc21 [Example 50, (S)—N-(6-cyclopropyl-1-methyl-1H-indazol-5-yl)-2-(3-hydroxypyrrolidin-1-yl)oxazole-4-carboxamide]",> 100 nM
6,"Cn1cc2cc(NC(=O)c3cccc(N4CC[C@@H](N)C4)n3)c(N3CCCCC3)cc2n1 [Example 42, (R)-6-(3-aminopyrrolidin-1-yl)-N-(2-methyl-6-(piperidin-1-yl)-2H-indazol-5-yl)picolinamide]",50 to 100 nM
7,"COCCn1cc2cc(NC(=O)c3coc(-c4ccnc(C)c4)n3)c(N3CCC(N)CC3)cc2n1 [Example 118, N-(6-(4-aminopiperidin-1-yl)-2-(2-methoxyethyl)-2H-indazol-5-yl)-2-(2-methylpyridin-4-yl)oxazole-4-carboxamide hydrochloride]",< 50 nM
8,"Cc1cc(-c2nc(C(=O)Nc3cc4cn(C)nc4cc3N3CCC(O)CC3)co2)cc(C)n1 [Example 126, 2-(2,6-dimethylpyridin-4-yl)-N-(6-(4-hydroxypiperidin-1-yl)-2-methyl-2H-indazol-5-yl) oxazole-4-carboxamide]",< 50 nM
9,"Cn1cc2cc(NC(=O)c3coc(-c4ccnc(N)c4)n3)c(N3CC[C@@H](O)C3)cc2n1 [Example 105, (R)-2-(2-aminopyridin-4-yl)-N-(6-(3-hydroxypyrrolidin-1-yl)-2-methyl-2H-indazol-5-yl)oxazole-4-carboxamide hydrochloride]",< 50 nM
10,"Cc1cc(-c2nc(C(=O)Nc3cc4cn(C)nc4cc3-c3cccc(F)c3)co2)ccn1 [Example 10, N-(6-(3-fluorophenyl)-2-methyl-2H-indazol-5-yl)-2-(2-methylpyridin-4-yl)oxazole-4-carboxamide]",< 50 nM
11,"Nc1ccc(-c2cccc(C(=O)Nc3cc4cn(C5CCCC5)nc4cc3N3CCOCC3)n2)cn1 [Example 9, 6′-amino-N-(2-cyclopentyl-6-morpholino-2H-indazol-5-yl)-[2,3′-bipyridine]-6-carboxamide 2,2,2-trifluoroacetate]",< 50 nM
12,"Cc1cc(-c2nc(C(=O)Nc3cc4c(C)nn(C)c4cc3N3CCCCC3)co2)ccn1 [Example 74, N-(1,3-dimethyl-6-(piperidin-1-yl)-1H-indazol-5-yl)-2-(2-methylpyridin-4-yl)oxazole-4-carboxamide]",< 50 nM
13,"Cc1cc(-c2ccc(C(=O)Nc3cc4cn(C)nc4cc3N3CCCCC3)o2)ccn1 [Example 66, N-(2-methyl-6-(piperidin-1-yl)-2H-indazol-5-yl)-5-(2-methylpyridin-4-yl)furan-2-carboxamide]",< 50 nM
14,"Cc1cc(-c2nc(C(=O)Nc3cc4cnn(C)c4cc3C3CC3)co2)ccn1 [Example 45, N-(6-cyclopropyl-1-methyl-1H-indazol-5-yl)-2-(2-methylpyridin-4-yl)oxazole-4-carboxamide]",< 50 nM
15,"CC(=O)Nc1cc(-c2nc(C(=O)Nc3cc4cn(C)nc4cc3N3CCCC(F)C3)co2)ccn1 (stereo not drawn) [Example 85, 2-(2-acetamidopyridin-4-yl)-N-(6-(3-fluoropiperidin-1-yl)-2-methyl-2H-indazol-5-yl)oxazole-4-carboxamide]",< 50 nM
16,"Cc1cc(-c2nc(C(=O)Nc3cc4cnn(C)c4cc3N3CCC(O)CC3)co2)ccn1 [Example 77, N-(6-(4-hydroxypiperidin-1-yl)-1-methyl-1H-indazol-5-yl)-2-(2-methylpyridin-4-yl)oxazole-4-carboxamide]",< 50 nM
